Measurements as given in US7741521B2, “Inhibition of bid-induced cell-death using small organic molecules” (The Burnham Institute, priority 2004, dated 2010).

Experiments:
[1] = test system: primary hippocampal neurons; experiment: Glutamate-induced cell death in primary hippocampal neurons; assay type: cell-based
Protocol: Primary cultures were obtained from embryonic day 18 rats and cultured in Neurobasal medium (Invitrogen, Karlsruhe, Germany) supplemented with 5 mM HEPES, 1.2 mM glutamine, B27 supplement (Invitrogen, 20 ml/l) and gentamicin (0.1 mg/ml) as described in the art. Glutamate (20 μM) was added in 9-10 day old cultures in EBSS medium (6800 mg/L NaCl, 400 mg/L KCl, 264 mg/L CaCl2×2H2O, 200 mg/L MgCl2×7H2O, 2200 mg/L NaHCO3, 140 mg/L NaH2PO4×H2O, 10 mM glucose, pH 7.2).
Neuronal cell death was quantified after staining the nuclei with the DNA-binding fluorochrome Hoechst 33258 (Molecular Probes) or by the MTT assay. Immunocytochemistry was performed as described in the art, with a polyclonal anti-AIF antibody (sc-9416, Santa Cruz; 1:200) followed by incubation a biotinylated anti-goat IgG antibody (1:200) Vector Laboratories) and Oregon Green-streptavidin (Molecular Probes). […]
To assess whether the compounds of the present invention would also prevent neuronal cell death in primary cultures, a number of cell-based assays were performed. […] Twenty-four hours later, apoptotic nuclei were quantified after staining with Hoechst 33342. In a separate experiment (FIG. 11C), the protective effect of Compound I against glutamate-induced cell death was quantified by the MTT assay. […]

[2] = test system: rat embryonic cortical neurons; experiment: Nuclear translocation of AIF in neurons exposed to glutamate; assay type: cell-based; conditions: glutamate 20 μM, 8 h
Protocol: Neuronal cell death was quantified after staining the nuclei with the DNA-binding fluorochrome Hoechst 33258 (Molecular Probes) or by the MTT assay. Immunocytochemistry was performed as described in the art, with a polyclonal anti-AIF antibody (sc-9416, Santa Cruz; 1:200) followed by incubation a biotinylated anti-goat IgG antibody (1:200) Vector Laboratories) and Oregon Green-streptavidin (Molecular Probes). After counterstaining with Hoechst 33342 images were acquired using a confocal laser scanning microscope (Axiovert, Zeiss) with a 60× oil immersion objective (514-nm excitation and 535-nm emission for detection of Oregon Green and 352-nm excitation and 460-nm emission for detection of Hoechst 33342).
Pretreatment with Compound I preserves nuclear morphology (blue fluorescence, Hoechst 33342) and prevents AIF translocation. […] Mean values and SD of 4 dishes per group are presented.

tBID = biological target: T1, tBID (Mus musculus, UniProt P70444); experiment: tBID association with isolated mitochondria (immunoblot with BID antibody); assay type: biochemical; conditions: at 20 μM
T1 construct: tBID was produced by cleavage of purified BID with caspase-8, as known in the art; made in house; host or cells: E. coli BL21 (BID), then cleaved in vitro with caspase-8
T1 sequence (P70444 60-195 limits assumed): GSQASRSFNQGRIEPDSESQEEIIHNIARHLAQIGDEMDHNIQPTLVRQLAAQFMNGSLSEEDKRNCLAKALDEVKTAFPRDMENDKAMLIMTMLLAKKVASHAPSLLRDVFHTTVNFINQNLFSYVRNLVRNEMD
T1 sequence (P70444 1-59 partner limits assumed): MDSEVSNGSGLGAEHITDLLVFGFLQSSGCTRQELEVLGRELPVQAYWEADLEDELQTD
Protocol: Compounds II-IX were tested in vitro for their ability to inhibit BID-mediated release of Smac using mitochondria isolated from HeLa cells (FIG. 6A). The first lane represents mitochondria incubated without tBID. All others received 100 ng tBID without or with compounds. Each compound was tested at a concentration of 50 μM. […] To preliminarily investigate the mechanism by which compound II reduces Smac-release from isolated mitochondria, the tBID protein was treated with different concentrations of BI-6C9, after which it was incubated with mitochondria, followed by analysis of the bound and unbound fractions by immunoblotting using BID antibody. The concentration of mitochondria-bound tBID diminished in response to increasing concentrations of compound II.

[3] = test system: HeLa cells transfected with a plasmid encoding tBID; experiment: Effector caspase activity in lysates of tBID-transfected cells; assay type: cell-based
Protocol: (§1) HEK 293T cells were transfected with 0.5 μg of plasmids encoding either GFP or GFP-tBID in 12 wells plate. After 3 hours transfection, various compounds were added in DMSO to the media. After 20 hours of further incubation, cells were collected and either lysed for caspase assays or fixed and stained with DAPI for determination of apoptosis^50. For caspase activity assays, 293T cells were lysed in lysis buffer (10 mM Hepes, pH 7.4, 142.2 mM KCl, 5 mM MgCl2, 0.5 mM EDTD, 0.5% NP-40) containing a protease inhibitor mixture (Roche Molecular Biochemicals). The lysates were normalized for protein concentration (10 μg), then incubated with 100 μM DEVD-AFC. Enzyme activity was determined by the release of AFC-fluorescence and Vmax was calculated (mean±Std. dev; n=3). For DAPI staining, 293T cells were fixed, washed with PBS, and stained with 0.1 mg/ml DAPI. The percentage of GFP-positive cells with apoptotic morphology (fragment nuclei or condensed chromatin) was determined (mean±Std. dev; n=3).
(§2) Compound II was also evaluated for its ability to inhibit BID-induced apoptosis in cell; for these experiments, HeLa cells were transfected with a plasmid encoding tBID, and effector caspase activity was measured in cell lysates 24 hours later. […] Moreover, tBID-induced cell death, as measured by caspase-3 activity, was reduced from 80±5% to 35±5% by 50 µM of compound II (FIG. 6E). […]

[4] = test system: HeLa cells transfected with a plasmid encoding tBID; experiment: tBID-induced cell death in transfected cells; assay type: cell-based; conditions: 50 µM; without compound 80±5%
Protocol: as §1, §2

caspase-8 = caspase-8 (Homo sapiens, UniProt Q14790); experiment: Caspase-8 mediated BID cleavage (SDS page); assay type: biochemical; conditions: concentrations used in the cellular assay
caspase-3 = biological target: T2, caspase-3 (Homo sapiens, UniProt P42574); experiment: Caspase-3 in vitro assay; assay type: biochemical; conditions: concentrations used in the cellular assay
T2 sequence (P42574 29-175 limits assumed): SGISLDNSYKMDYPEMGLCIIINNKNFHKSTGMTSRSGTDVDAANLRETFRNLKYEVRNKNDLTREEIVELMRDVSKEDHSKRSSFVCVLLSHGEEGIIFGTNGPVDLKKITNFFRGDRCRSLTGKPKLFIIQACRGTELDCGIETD
T2 sequence (P42574 176-277 limits assumed): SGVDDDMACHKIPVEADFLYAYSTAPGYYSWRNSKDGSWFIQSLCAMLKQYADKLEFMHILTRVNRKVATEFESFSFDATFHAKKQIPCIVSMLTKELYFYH

Sequence of caspase-8 (Q14790 217-374 limits assumed, species assumed): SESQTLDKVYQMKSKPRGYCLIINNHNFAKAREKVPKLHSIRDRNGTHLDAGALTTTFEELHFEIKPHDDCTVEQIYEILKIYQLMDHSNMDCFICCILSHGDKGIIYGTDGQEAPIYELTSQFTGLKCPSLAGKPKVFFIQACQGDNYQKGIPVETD
Sequence of caspase-8 (Q14790 385-479 limits assumed, species assumed): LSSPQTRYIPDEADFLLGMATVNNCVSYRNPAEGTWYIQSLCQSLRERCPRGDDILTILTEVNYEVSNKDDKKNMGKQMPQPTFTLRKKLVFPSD

SMILES | concentration range of dose-dependent neuroprotective effect ([1]; 1 hour pretreatment, glutamate 20 μM, 24 hours, Hoechst 33342 apoptotic nuclei) [µM] | toxicity to primary hippocampal neurons ([1]; at higher concentrations (20 μM)) | nuclear translocation of AIF [2] | inhibition of tBID association with isolated mitochondria (tBID) | reduction of caspase-3 activity in tBID-transfected cells ([3]; 50 µM, 24 hours after transfection) [fold] | caspase activity in tBID-transfected cells ([3]; 100 µM) | tBID-induced cell death [4] [%] | effect on caspase-8 mediated BID cleavage (caspase-8) | inhibition of caspase-3 (caspase-3)
Nc1ccc(Sc2ccc(NC(=O)CNC(=O)c3ccc(O)cc3O)cc2)cc1 [Compound I, N-((4-(4-aminophenylthio)phenylcarbamoyl)methyl)-2,4-dihydroxybenzamide] | 0.2 to 2 | some toxicity | prevented | – | – | – | – | – | –
COc1ccc(S(=O)(=O)NCCCC(=O)Nc2ccc(Sc3ccc(N)cc3)cc2)cc1 [Compound II, N-[4-(4-amino-phenylsulfanyl)-phenyl]-4-(4-methoxy-benzenesulfonylamino)-butyramide] | – | – | – | effective | ~4 | totally blocked | 35±5 | does not impair | does not inhibit
